Several values for one entry are separate records, joined by “and”; a condition that tells them apart may be missing. Equal entries are not always repeated.
Key:
[1] = target: T1, Pseudomonas stutzeri WM88 phosphite dehydrogenase, wild type, SEQ ID NO: 3, C-terminal His tag fusion (PtxDPst) (Stutzerimonas stutzeri, UniProt O69054); test: Activity of phosphite dehydrogenase protein in the presence of inhibitor; format: biochemical; set-up: key to relative value of OD340 (activity in the presence of inhibitor, control = 100): OD340 relative to no-protein negative control = 100; details: 30° C., 60 minutes; for relative value of OD340 (activity in the presence of inhibitor, control = 100): 50 μL of 40 mM inhibitor in the reaction solution (500 μL in total); for activity in the presence of inhibitor (in words): 50 μL of 40 mM inhibitor in the reaction solution
T1 construct: His tag (C); made in house; host or cells: E. coli Rosetta2 (DE3), plasmid pET21b
T1 sequence (O69054 1-336): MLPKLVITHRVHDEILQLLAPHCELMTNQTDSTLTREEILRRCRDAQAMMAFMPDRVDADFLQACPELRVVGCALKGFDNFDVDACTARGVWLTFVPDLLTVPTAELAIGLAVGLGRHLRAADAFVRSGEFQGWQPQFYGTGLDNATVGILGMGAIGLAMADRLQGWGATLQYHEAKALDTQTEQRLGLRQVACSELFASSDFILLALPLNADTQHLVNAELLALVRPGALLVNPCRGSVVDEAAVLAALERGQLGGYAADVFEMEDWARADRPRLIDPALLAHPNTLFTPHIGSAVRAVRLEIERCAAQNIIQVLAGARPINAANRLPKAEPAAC
From the text: (§1) By a well-known method, the base sequence of SEQ ID NO: 2 or a phosphite dehydrogenase gene (SEQ ID NO: 4) of P stutzeri WM88 was inserted into a plasmid pET21b (produced by Novagen) (an amino acid sequence of the protein encoded by the base sequence of SEQ ID NO: 4 is shown in SEQ ID NO: 3) to prepare (i) an expression vector of a fusion protein (see “PtxD4506” in FIG. 2) in which the C-terminal of the phosphite dehydrogenase protein of SEQ ID NO: 1 is labeled with a His tag or (ii) an expression vector of a fusion protein (see “PtxDPst” in FIG. 2) in which the C-terminal of the phosphite dehydrogenase protein of P stutzeri WM88 is labeled with a His tag.
(§2) The supernatant was supplied to a HisTrap column (produced by GE Healthcare) and, in accordance with protocols attached to the HisTrap column, a fusion protein in which a His tag was connected to the C-terminal of the phosphite dehydrogenase protein of SEQ ID NO: 1 was purified.
(§3) PtxD4506 and PtxDPst, which were purified with use of the HisTrap column in [3. […] An experimental method was based on a method described in the literature “Costas et al., Journal of Biological Chemistry, 2001, 276, 17429-17436.” The experimental method is briefly described below.
(§4) A reaction solution was prepared by mixing 100 μL of 100 mM MOPS-KOH (pH 7.25), 50 μL of 10 mM NAD, 5 μL of 5 mM phosphite, 50 μL of 40 mM inhibitor of various kinds (arsenite, nitrate, sulfate, or NaCl), 294 μL of H2O, and 1 μL of 0.5 mg/mL protein-containing solution (a PtxD4506-containing solution, a PtxDPst-containing solution, or a liquid which contained no protein (negative control)).
(§5) The reaction solution was reacted for 60 minutes. Note that the reaction solution containing the PtxD4506-containing solution was reacted at 45° C., and the reaction solution containing the PtxDPst-containing solution was reacted at 30° C. Subsequently, OD340 was measured. A relative value of OD340 of each sample was calculated relative to 100 of a value of OD340 of the reaction solution containing the liquid which contained no protein (negative control). Note that each experiment was conducted 4 times or more, and an average of relative values obtained in the 4 or 5 experiments was also calculated.

[2] = target: T2, Ralstonia sp. strain 4506 phosphite dehydrogenase, SEQ ID NO: 1, C-terminal His tag fusion (PtxD4506) (Ralstonia sp. 4506, UniProt G4XDR8); test: as above; format: biochemical; details: 45° C., 60 minutes; for relative value of OD340 (activity in the presence of inhibitor, control = 100): 50 μL of 40 mM inhibitor in the reaction solution (500 μL in total); for activity in the presence of inhibitor (in words): 50 μL of 40 mM inhibitor in the reaction solution
T2 sequence (G4XDR8 1-336): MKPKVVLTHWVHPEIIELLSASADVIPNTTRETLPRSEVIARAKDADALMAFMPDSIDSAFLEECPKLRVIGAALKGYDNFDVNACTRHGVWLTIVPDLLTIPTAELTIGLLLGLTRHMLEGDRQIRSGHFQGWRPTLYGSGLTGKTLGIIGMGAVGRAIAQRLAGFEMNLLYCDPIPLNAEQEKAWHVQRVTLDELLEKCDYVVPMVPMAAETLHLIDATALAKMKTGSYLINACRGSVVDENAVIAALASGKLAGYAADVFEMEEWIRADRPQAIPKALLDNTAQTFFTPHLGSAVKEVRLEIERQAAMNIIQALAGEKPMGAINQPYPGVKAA
From the text: as §1, §2, §3, §4, §5

[3] = target: T1, Pseudomonas stutzeri WM88 phosphite dehydrogenase, wild type, SEQ ID NO: 3, C-terminal His tag fusion (PtxDPst); test: Reaction kinetic analysis: NADH production rate at varied NAD+ concentration; format: biochemical; details: NAD+ 0.5 μM to 200 μM, 28° C., individual experiments 1-3
From the text: as §1
The supernatant was supplied to a HisTrap column (produced by GE Healthcare) and, in accordance with protocols attached to the HisTrap column, a fusion protein in which a His tag was connected to the C-terminal of the phosphite dehydrogenase protein of SEQ ID NO: 1 was purified. […]
Reaction rates of respective PtxD4506 and PtxDPst were calculated on the basis of (Reaction formula 1) shown in the section [Background Art].
Specifically, in the reaction system of (Reaction formula 1), a production rate of NADH was measured with use of 7.5 μg of each of the fusion proteins PtxD4506 and PtxDPst while a concentration of a substrate (NAD^+) was gradually changed from 0.5 μM to 200 μM. […]

[4] = target: T2, Ralstonia sp. strain 4506 phosphite dehydrogenase, SEQ ID NO: 1, C-terminal His tag fusion (PtxD4506); test: as above
[5] = pH 7.25, average of 4 or 5 experiments
[6] = pH 7.25, individual experiments 1-5
[7] = NAD+ 0.5 μM to 200 μM, 40° C., individual experiments 1-3

SMILES | relative value of OD340 (activity in the presence of inhibitor, control = 100) [1, 5] | relative value of OD340 (activity in the presence of inhibitor, control = 100) [1, 6] | activity in the presence of inhibitor (in words) [1] | relative value of OD340 (activity in the presence of inhibitor, control = 100) [2, 5] | relative value of OD340 (activity in the presence of inhibitor, control = 100) [2, 6] | activity in the presence of inhibitor (in words) [2] | Kcat [3] | Vmax [3] | Kcat [4, 7] | Vmax [4, 7] | Vmax of PtxD4506 relative to that of PtxDPst ([4]; NAD+, PtxD4506 at 40° C., PtxDPst at 28° C.)
O[As](O)O [Arsenite] | 86.6 | 82.3 and 90.4 and 88.6 and 91.4 and 90.7 | inhibited | 101.6 | 102.6 and 102.2 and 101.7 and 101.3 and 100.2 | maintained in a high level | – | – | – | – | –
NC(=O)c1ccc[n+]([C@@H]2O[C@H](COP(=O)([O-])OP(=O)(O)OC[C@H]3O[C@@H](n4cnc5c(N)ncnc54)[C@H](O)[C@@H]3O)[C@@H](O)[C@H]2O)c1 [NAD+] | – | – | – | – | – | – | 194.1 min⁻¹ and 163.9 min⁻¹ and 150.8 min⁻¹ | 4.9 µmol/min/mg and 4.1 µmol/min/mg and 3.8 µmol/min/mg | 255.7 min⁻¹ and 244.1 min⁻¹ and 212.4 min⁻¹ | 6.4 µmol/min/mg and 6.1 µmol/min/mg and 5.3 µmol/min/mg | about 1.4 times
O=[N+]([O-])O [Nitrate] | 18.3 | 15.3 and 21.8 and 20.3 and 20.1 and 14.0 | inhibited | 35.7 | 29.2 and 39.6 and 40.2 and 40.3 and 29.3 | maintained in a high level | – | – | – | – | –
N.N.O=S(O)O [Sulfite] | 14.0 | 15.4 and 15.3 and 16.2 and 9.2 | – | 52.5 | 53.2 and 58.8 and 57.0 and 40.9 | – | – | – | – | – | –
O=S(=O)(O)O [sulfate] | – | – | inhibited | – | – | maintained in a high level | – | – | – | – | –

Source: patent US9273290B2, “Method for producing phosphite dehydrogenase protein and use thereof” (HIROSHIMA UNIVERSITY, priority 2011, dated 2016)
